Source: patent EP0326331B1, “Substituted quinolines and cinnolines” (Dow AgroSciences LLC, priority 1988, dated 1989)

Columns and labels:
Type in all cases: in vivo
[1] = system: Pyricularia oryzae (rice blast); experiment: whole plant or invertebrate; settings: Pyricularia oryzae, foliar, read-out: RICE BLAST, Test 1, foliar spray on rice; disease control rating at 400 ppm / 100 ppm
[2] = system: southern armyworm (Spodopetra eridania Cramer); experiment: Mite/insect screen, SAW; settings: Spodoptera eridania, foliar, percent mortality, foliar spray on squash, read-out: SAW RESULTS %; for mortality at 400 ppm: rate 400 ppm; for mortality at 200 ppm: rate 200 ppm
Method in brief: (§1)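 Read-out: percent mortality after standard exposure periods. Test solutions were water dilutions of compound dissolved in acetone/alcohol (50:50) with emulsifier blends; leaves were sprayed to runoff on both surfaces and air-dried for one hour before exposure.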

[3] = system: Puccinia recondita tritici (leaf rust); experiment: Test 1 greenhouse foliar spray screen, leaf rust on wheat; settings: Puccinia recondita, foliar, Test 1, foliar spray on wheat; disease control rating at 400 ppm / 100 ppm
[4] = system: Twospotted spider mites (Tetranychus urticae Koch); experiment: Mite/insect screen, SM; settings: for mortality at 400 ppm / mortality at 200 ppm: Tetranychus urticae, foliar, percent mortality, foliar spray on squash, read-out: SM RESULTS %; for mortality at 400 ppm: rate 400 ppm; for activity as miticides: summary statement in the description; for mortality at 200 ppm: rate 200 ppm
Method in brief: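 Foliar spray to runoff (10 psi), 1 h drying; aqueous dilutions from acetone/alcohol emulsifier stock. Mortality (%) after standard exposure.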

[5] = system: melon aphids (Aphis gossypii Glover); experiment: Mite/insect screen, MA; settings: Aphis gossypii, foliar, percent mortality, foliar spray on squash, read-out: MA RESULTS %; for mortality at 400 ppm: rate 400 ppm; for mortality at 200 ppm: rate 200 ppm
Method in brief: as §1

[6] = system: Pseudoperonospora cubensis (downy mildew); experiment: Test 1 greenhouse foliar spray screen, downy mildew on squash; settings: Pseudoperonospora cubensis, foliar, Test 1, foliar spray on squash; disease control rating at 400 ppm / 100 ppm; read-out: DOWN MDEW
[7] = system: Erysiphe graminis tritici (powdery mildew); experiment: Test 1 greenhouse foliar spray screen, powdery mildew on wheat; settings: Blumeria graminis, foliar, Test 1, foliar spray on wheat; disease control rating at 400 ppm / 100 ppm; read-out: POWD MDEW
[8] = system: Botrytis cinerea (gray mold); experiment: Test 1 greenhouse foliar spray screen, gray mold on grape berries; settings: Botrytis cinerea, foliar; Test 1, spray on grape berries; disease control rating at 400 ppm / 100 ppm
corn rootworm = experiment: Mite/insect screen, CRW; settings: percent mortality, read-out: CRW RESULTS %; for mortality at 24 ppm: CRW rate 24.00 ppm; for mortality at 12 ppm: CRW rate 12.00 ppm
Method in brief: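 Read-out: % mortality after standard exposure. Formulation: acetone/alcohol (50:50) with emulsifiers at 23 g and 13 g per liter, water-diluted to final test levels.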

Compound	pest or weed control at 400 ppm [1] [%]	mortality at 400 ppm [2] [%]	pest or weed control at 400 ppm [3] [%]	mortality at 400 ppm [4] [%]	activity as miticides [4]	mortality at 400 ppm [5] [%]	pest or weed control at 400 ppm [6] [%]	pest or weed control at 400 ppm [7] [%]	pest or weed control at 400 ppm [8] [%]	mortality at 24 ppm (corn rootworm) [%]	mortality at 200 ppm [2] [%]	mortality at 200 ppm [4] [%]	mortality at 200 ppm [5] [%]	mortality at 12 ppm (corn rootworm) [%]
Fc1cccc2c(OCCc3cccc(Oc4ccccc4)c3)ccnc12 [Example 197, 8-fluoro-4-[2-(3-phenoxyphenyl)ethoxy]quinoline]	90 to 100	80	90 to 100	90	particularly excellent activity	80	20 to 89	90 to 100	0 to 19	0				
CC(C)(C)c1ccc(CCOc2ccnc3c(Br)cccc23)cc1 [Example 198, 8-bromo-4-[2-(4-(t-butyl)phenyl)ethoxy]quinoline]	0 to 19	0	0 to 19	90		80	0 to 19	0 to 19	0 to 19	0				
COc1ccc(CCOc2ccnc3c(F)cccc23)cc1OC [Example 199, 4-[2-(3,4-dimethoxyphenyl)ethoxy]-8-fluoroquinoline]	90 to 100	0	90 to 100	0		0	90 to 100	90 to 100	0 to 19	100				
Cc1ccc(CCOc2ccnc3cc(Cl)ccc23)cc1 [Example 204, 7-chloro-4-[2-(4-methylphenyl)ethoxy]quinoline]	0 to 19	100	20 to 89	0		50	20 to 89	20 to 89	0 to 19	0	0	0	0	0
Cc1ccccc1CCOc1ccnc2c(F)cccc12 [Example 205, 8-fluoro-4-[2-(2-methylphenyl)ethoxy]quinoline]	90 to 100	0	90 to 100	0		0	90 to 100	90 to 100	0 to 19	0				
CC(Cc1ccccc1)Oc1ccnc2c(F)cccc12 (stereo not shown) [Example 214, 8-fluoro-4-[1-(phenylmethyl)ethoxy]quinoline]	90 to 100	0	20 to 89	0		0	90 to 100	20 to 89	0 to 19	0				
Clc1ccc(CCOc2ccnc3c(Br)cccc23)cc1 [Example 215, 8-bromo-4-[2-(4-chlorophenyl)ethoxy]quinoline]	20 to 89	0	20 to 89	100		100	90 to 100	0 to 19	0 to 19	0				
Clc1ccccc1CCOc1ccnc2c(Cl)cccc12 [Example 216, 8-chloro-4-[2-(2-chlorophenyl)ethoxy]quinoline]	90 to 100	0	90 to 100	0		0	90 to 100	90 to 100	0 to 19	100				
CC(C)c1ccccc1CCOc1ccnc2c(F)cccc12 [Example 217, 8-fluoro-4-[2-(2-(1-methylethyl)phenyl)ethoxy]quinoline]	90 to 100	0	90 to 100	0		0	90 to 100	90 to 100	0 to 19	0				
Fc1cccc2c(OCCc3cccc(Sc4ccccc4)c3)ccnc12 [Example 218, 8-fluoro-4-[2-(3-(phenylthio)phenyl)ethoxy]quinoline]	90 to 100	100	90 to 100	0		0	90 to 100	90 to 100	0 to 19	0				
Fc1cccc2c(OCCc3ccc(Br)cc3)ccnc12 [Example 223, 4-[2-(4-bromophenyl)ethoxy]-8-fluoroquinoline]	90 to 100	0	90 to 100	0		100	0 to 19	90 to 100	0 to 19	0	0	0	80	80
Clc1ccc(CCOc2ccnc3cc(Cl)ccc23)cc1 [Example 226, 7-chloro-4-[2-(4-chlorophenyl)ethoxy]quinoline]	0 to 19	0	20 to 89	0		0	20 to 89	20 to 89	0 to 19	0	0	0	0	0
Cc1cc(C)c(CCOc2ccnc3c(F)cccc23)c(C)c1 [Example 227, 8-fluoro-4-[2-(2,4,6-trimethylphenyl)ethoxy]quinoline]	20 to 89	0	20 to 89	0		0	0 to 19	0 to 19	0 to 19	0	0	0	0	0
CC(C)(C)c1ccc(CCOc2ccnc3cc(Cl)ccc23)cc1 [Example 231, 7-chloro-4-[2-(4-(t-butyl)phenyl)ethoxy]quinoline]	0 to 19	0	0 to 19	40	particularly excellent activity	50	0 to 19	20 to 89	0 to 19	0	0	90	0	0
